The target in data set [1] is T1, Recombinant human p38α (Homo sapiens, UniProt Q16539).
T1 construct: GST; made in house
Nature of the data set: Time-resolved fluorescence resonance energy transfer (TR-FRET) kinase assay (standard or low volume). It counts as biochemical. Here is the method: […] To activate this protein, 3 μM unactivated p38α was incubated in 200 mM Hepes pH 7.4, 625 mM NaCl, 1 mM DTT with 27 nM active MKK6 (Upstate), 1 mM ATP and 10 mM MgCl2 The activity of the MKK6-activated p38α was assessed using a time-resolved fluorescence resonance energy transfer (TR-FRET) assay. Biotinylated-GST-ATF2 (residues 19-96, 400 nM final), ATP ([…]) and MgCl2 (5 mM final) in assay buffer (40 mM HEPES pH 7.4, 1 mM DTT) were added to wells containing 1 ul of various concentrations of compound or DMSO vehicle (3% final) in NUNC 384 well black plate. The reaction was initiated by the addition of MKK6-activated p38 (100 pM final) to give a total volume of 30 ul. The reaction was incubated for 120 minutes at room temperature, then terminated by the addition of 15 μl of 100 mM EDTA pH 7.4. Detection reagent (15 μl) in buffer (100 mM HEPES pH 7.4, 150 mM NaCl, 0.1% w/v BSA, 1 mM DTT) containing antiphosphothreonine-ATF2-71 polyclonal antibody (Cell Signalling Technology, Beverly Mass., USA) labelled with W-1024 europium chelate (Wallac OY, Turku, Finland), and APC-labelled streptavidin (Prozyme, San Leandro, Calif., USA) was added and the reaction was further incubated for 60 minutes at room temperature. The degree of phosphorylation of GST-ATF2 was measured using a Packard Discovery plate reader (Perkin-Elmer Life Sciences, Pangbourne, UK) as a ratio of specific 665 nm energy transfer signal to reference europium 620 nm signal.
[…] To activate this protein, 3 μM unactivated p38α was incubated in 200 mM Hepes pH7.4, 625 mM NaCl, 1 mM DTT with 27 nM active MKK6 (Upstate), 1 mM ATP and 10 mM MgCl2 The activity of the MKK6-activated p38α was assessed using a time-resolved fluorescence resonance energy transfer (TR-FRET) assay. Biotinylated-GST-ATF2 (residues 19-96, 400 nM final), ATP (125 μM final) and MgCl2 (5 mM final) in assay buffer (40 mM HEPES pH 7.4, 1 mM DTT) were added to wells containing 0.1 μl of various concentrations of compound or DMSO vehicle (1.7% final) in Greiner low volume 384 well black plate. The reaction was initiated by the addition of MKK6-activated p38α (100 pM final) to give a total volume of 6 μl. The reaction was incubated for 120 minutes at room temperature, then terminated by the addition of 3 μl of detection reagent in buffer (100 mM HEPES pH 7.4, 150 mM NaCl, 0.1% w/v BSA, 1 mM DTT, 100 mM EDTA) containing antiphosphothreonine-ATF2-71 polyclonal antibody (Cell Signalling Technology, Beverly Mass., USA) labelled with W-1024 europium chelate (Wallac OY, Turku, Finland), and APC-labelled streptavidin (Prozyme, San Leandro, Calif., USA). The reaction was further incubated for 60 minutes at room temperature. The degree of phosphorylation of GST-ATF2 was measured using a BMG Rubystar plate reader (BMG, UK) as a ratio of specific 665 nm energy transfer signal to reference europium 620 nm signal. It is noted that there are two assay formats shown above for the Time-resolved fluorescence resonance energy transfer kinase assay. The only difference between these two assays is the volume used and the plate type. […] The results described herein may have been performed in either assay format and are not differentiated as to which.

The subject of data set [2] is IL-8 production by human neutrophils. The data set is described as follows: TNF-stimulated IL-8 production from human neutrophils. It counts as cell-based. The settings on record: Neutrophil.
The target of data set [3] is T1, Recombinant human p38α. The data set is described as follows: Fluorescence anisotropy kinase binding assay (standard or low volume). The settings on record: for active in the assay (pIC50, p38α binding): 12 nM p38α, 5 nM fluorescent ligand. In short, it runs like this: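 Activated GST-tagged recombinant human p38α (pre-activated with MBP-MKK6 DD) at 12 nM final with 5 nM rhodamine green-labelled pyridinylimidazole tracer in pH 7.5 HEPES/CHAPS/DTT/MgCl2 buffer. Test compound 0.28 nM–16.6 μM or 0.02 nM–25 μM final, 3% or 1.7% DMSO; 30–60 min at room temperature. Fluorescence anisotropy read (ex 485/em 535 nm) for Ki.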
(In general: Polarisation of emitted light reports the rotation of a fluorescent probe.)

The next data set relates to TNFalpha. The data set is described as follows: LPS-stimulated cytokine production in human whole blood. The settings on record: LPS-stimulated TNF-alpha, bound, read-out: IC50. The format is cell-based.
The test system of data set [4] is IL-6, IL-8, GM-CSF, RANTES and COX-2 synthesis. The settings on record: a number of different cell types; cited from earlier work.
Data set [5] deals with TGF-β-induced fibronectin and thrombospondin. The settings on record: Laping et al., 2002; cited from earlier work.
The mark [6] stands for this setting: second end given as 'less than', read-out: pIC50, broad range of data upon multiple runs (converted).
Where [7] appears, read: bound, not more than 50% inhibition at 100 nM, read-out: IC50.
The mark [8] stands for this setting: bound, read-out: apparent pIC50 (converted).
Where [9] appears, read: bound, read-out: pIC50 (converted).

This is an account of results in patent publication US20090239846A1, “Novel Compounds” (Glaxo Group Limited, priority 2005, published 2009).

Structures can show the parent of a compound that is named as a salt. Where two headings read alike, the source gives them in different places. Where only a bound is given, the exact number is not on record here.

By melting point is commonly meant the temperature, or range, at which the solid turns liquid.

T1 sequence (Q16539 whole entry): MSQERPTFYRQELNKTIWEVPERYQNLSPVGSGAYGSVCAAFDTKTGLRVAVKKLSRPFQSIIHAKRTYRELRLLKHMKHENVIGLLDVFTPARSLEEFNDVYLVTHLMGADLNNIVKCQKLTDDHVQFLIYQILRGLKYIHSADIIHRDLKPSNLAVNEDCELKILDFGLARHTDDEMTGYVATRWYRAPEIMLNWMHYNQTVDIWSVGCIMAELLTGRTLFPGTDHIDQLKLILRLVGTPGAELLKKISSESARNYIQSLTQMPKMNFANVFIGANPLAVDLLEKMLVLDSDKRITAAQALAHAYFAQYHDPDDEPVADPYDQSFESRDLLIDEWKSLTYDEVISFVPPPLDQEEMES
Experimental for TNFalpha: Assay: Test compound concentrations were prepared at 10× concentrations and LPS prepared at 1 ug/ml (final conc. of 50 ng/ml LPS) and added in 50 uL volumes to 1.5 mL eppendorf tubes. Heparinized human whole blood was obtained from healthy volunteers and was dispensed into eppendorf tubes or multiwell plates containing compounds and LPS in 0.2-0.4 mL volumes and the tubes incubated at 37 C. In some studies, compound was incubated with blood for up to 30 min prior to addition of LPS. Following a 4 hour incubation, the tubes or plates were centrifuged to remove cells and plasma was withdrawn and frozen at −80 C. Cytokine measurement: IL-1beta and/or TNFalpha were quantified using a standardized ELISA, or similar technology. Concentrations of IL-1beta or TNFalpha were determined from standard curves of the appropriate cytokine and IC50 values for test compound (concentration that inhibited 50% of LPS-stimulated cytokine production) were calculated by linear regression analysis.

For `Cc1ccc(C(=O)NC2CCC2)cc1-c1nc(N2CCC(N)CC2)nc2c1CNC(=O)N2c1c(F)cccc1F` [1(g), 3-[2-(4-Amino-1-piperidinyl)-8-(2,6-difluorophenyl)-7-oxo-5,6,7,8-tetrahydropyrimido[4,5-d]pyrimidin-4-yl]-N-cyclobutyl-4-methylbenzamide], the IC50 on Recombinant human p38α [1] (setting [6]) was not below 7.94 nM; in data set [2] (ends given as 'less than' / 'greater than', read-out: IC50, broad range of data upon multiple runs) it was 40 to 100 nM. Further, on Recombinant human p38α [3], the “active in the assay (pIC50, p38α binding)” value (“active in the assay” below) is recorded as “active”.

Take `Cc1cc(C(=O)NC(C)C)ccc1-c1nc(NCCN(C)C)nc2c1CNC(=O)N2c1c(F)cccc1F` [104(c), 4-(8-(2,6-difluorophenyl)-2-{[2-(dimethylamino)ethyl]amino}-7-oxo-5,6,7,8-tetrahydropyrimido[4,5-d]pyrimidin-4-yl)-3-methyl-N-(1-methylethyl)benzamide trifluoroacetate]: the IC50 at Recombinant human p38α [1] (setting [6]) was not below 158 nM; in data set [2] (setting [7]), more than 100 nM; on Recombinant human p38α [3] (setting [8]) it was more than 15800 nM.

On to `Cc1ccc(C(=O)NCc2ccccc2)cc1-c1nc(NCCN(C)C)nc2c1CNC(=O)N2c1c(F)cccc1F` [Example 18, 3-(8-(2,6-Difluorophenyl)-2-{[2-(dimethylamino)ethyl]amino}-7-oxo-5,6,7,8-tetrahydropyrimido[4,5-d]pyrimidin-4-yl)-4-methyl-N-(phenylmethyl)benzamide], for which the melting point fell in the range of 148 to 150 °C. Moreover, at Recombinant human p38α [1] (setting [6]), the IC50 was not below 7.94 nM.

As for `Cc1ccc(C(=O)Nc2ccc(C)c(-c3nc(NC4CCNCC4)nc4c3CNC(=O)N4c3c(F)cccc3F)c2)cc1F` [Example 27(b), N-{3-[8-(2,6-difluorophenyl)-7-oxo-2-(4-piperidinylamino)-5,6,7,8-tetrahydropyrimido[4,5-d]pyrimidin-4-yl]-4-methylphenyl}-3-fluoro-4-methylbenzamide], the melting point was 218 to 223.5 °C. The IC50 at Recombinant human p38α [1] (setting [9]) is more than 15800 nM. The “active in the assay” value at Recombinant human p38α [3] was “active”.

Consider `CC(C)NC(=O)c1ccc(-c2nc(NCCN(C)C)nc3c2CNC(=O)N3c2c(F)cccc2F)cc1` [Example 97, 4-(8-(2,6-difluorophenyl)-2-{[2-(dimethylamino)ethyl]amino}-7-oxo-5,6,7,8-tetrahydropyrimido[4,5-d]pyrimidin-4-yl)-N-(1-methylethyl)benzamide trifluoroacetate], for which the IC50 at Recombinant human p38α [1] (setting [6]) is not below 158 nM; at Recombinant human p38α [3] (setting [8]), more than 15800 nM.

As for `CNC(=O)c1ccc(-c2nc(NCCN(C)C)nc3c2CNC(=O)N3c2c(F)cccc2F)cc1` [Example 102, 4-(8-(2,6-difluorophenyl)-2-{[2-(dimethylamino)ethyl]amino}-7-oxo-5,6,7,8-tetrahydropyrimido[4,5-d]pyrimidin-4-yl)-N-methylbenzamide trifluoroacetate], the IC50 at Recombinant human p38α [1] (setting [6]) is not below 158 nM; at Recombinant human p38α [3] (setting [8]) it was more than 15800 nM.

For the molecule `CCCNC(=O)c1ccc(-c2nc(NCCN(C)C)nc3c2CNC(=O)N3c2c(F)cccc2F)c(C)c1` [Example 105, 4-(8-(2,6-difluorophenyl)-2-{[2-(dimethylamino)ethyl]amino}-7-oxo-5,6,7,8-tetrahydropyrimido[4,5-d]pyrimidin-4-yl)-3-methyl-N-propylbenzamide trifluoroacetate], the IC50 on Recombinant human p38α [1] (setting [9]) is more than 1580 nM; in data set [2] (setting [7]), more than 100 nM; on Recombinant human p38α [3] (setting [8]), more than 15800 nM.

Take `Cc1cc(C(=O)Nc2ccccc2)ccc1-c1nc(NCCN(C)C)nc2c1CNC(=O)N2c1c(F)cccc1F` [Example 106, 4-(8-(2,6-difluorophenyl)-2-{[2-(dimethylamino)ethyl]amino}-7-oxo-5,6,7,8-tetrahydropyrimido[4,5-l]pyrimidin-4-yl)-3-methyl-N-phenylbenzamide trifluoroacetate]: the IC50 is not below 158 nM at Recombinant human p38α [1] (setting [6]), more than 100 nM in data set [2] (setting [7]) and more than 15800 nM at Recombinant human p38α [3] (setting [8]).

For `Cc1cc(C(=O)Nc2ccc(F)cc2)ccc1-c1nc(NCCN(C)C)nc2c1CNC(=O)N2c1c(F)cccc1F` [Example 107, 4-(8-(2,6-difluorophenyl)-2-{[2-(dimethylamino)ethyl]amino}-7-oxo-5,6,7,8-tetrahydropyrimido[4,5-d]pyrimidin-4-yl)-N-(4-fluorophenyl)-3-methylbenzamide trifluoroacetate], the IC50 at Recombinant human p38α [1] (setting [9]) was more than 1580 nM; in data set [2] (setting [7]) it was more than 100 nM; at Recombinant human p38α [3] (setting [8]), more than 15800 nM.

With `Cc1cc(C(=O)N(C)C)ccc1-c1nc(NCCN(C)C)nc2c1CNC(=O)N2c1c(F)cccc1F` [Example 108, 4-(8-(2,6-difluorophenyl)-2-{[2-(dimethylamino)ethyl]amino}-7-oxo-5,6,7,8-tetrahydropyrimido[4,5-d]pyrimidin-4-yl)-N,N,3-trimethylbenzamide trifluoroacetate], the IC50 on Recombinant human p38α [1] (setting [6]) was not below 158 nM; in data set [2] (setting [7]) it was more than 100 nM; on Recombinant human p38α [3] (setting [8]), more than 15800 nM.

As for `Cc1cc(C(N)=O)ccc1-c1nc(NCCN(C)C)nc2c1CNC(=O)N2c1c(F)cccc1F` [Example 110, 4-(8-(2,6-difluorophenyl)-2-{[2-(dimethylamino)ethyl]amino}-7-oxo-5,6,7,8-tetrahydropyrimido[4,5-d]pyrimidin-4-yl)-3-methylbenzamide trifluoroacetate], the IC50 at Recombinant human p38α [1] (setting [9]) is more than 1580 nM; in data set [2] (setting [7]), more than 100 nM; on Recombinant human p38α [3] (setting [8]) it was more than 15800 nM.

Take `Cc1ccc(C(=O)O)cc1-c1nc(NCCN(C)C)nc2c1CNC(=O)N2c1c(F)cccc1F` [Example 117, 3-(8-(2,6-difluorophenyl)-2-{[2-(dimethylamino)ethyl]amino}-7-oxo-5,6,7,8-tetrahydropyrimido[4,5-d]pyrimidin-4-yl)-4-methylbenzoic acid]: the IC50 was not below 158 nM on Recombinant human p38α [1] (setting [6]) and more than 1000 nM with TNFalpha. Besides, the “active in the assay” value on Recombinant human p38α [3] is “active”.

As for `CCN(CC)C(=O)c1ccc(C)c(-c2nc(N3CCN(C)CC3)nc3c2CNC(=O)N3c2c(F)cccc2F)c1` [Example 162, 3-[8-(2,6-difluorophenyl)-2-(4-methyl-1-piperazinyl)-7-oxo-5,6,7,8-tetrahydropyrimido[4,5-d]pyrimidin-4-yl]-N,N-diethyl-4-methylbenzamide], the melting point was 201 to 205 °C (dec.). Further, the IC50 on Recombinant human p38α [3] (setting [6]) is not below 1260 nM. Moreover, the IC50 in the data set with TNFalpha is more than 1000 nM.

As for `C[S+]([O-])c1ccc(-c2nc(-c3ccncc3)c(-c3ccc(F)cc3)[nH]2)cc1` (stereo not drawn) [SB-203580], the “decreasing the synthesis of pro-inflammatory proteins including IL-6, IL-8, GM-CSF, RANTES and COX-2” value in data set [4] is listed as “effective”.

Take `COc1nccc(-c2c(-c3ccc(F)cc3)ncn2C2CCNCC2)n1` [SB-242235]: the “effect on TGF-β-induced increases in fibronectin and thrombospondin” value in data set [5] is given as “inhibited”.

On to `Fc1ccc(-c2nc3n(c2-c2ccncc2)CCS3)cc1` [SK&F 86002], for which the “decreasing the synthesis of pro-inflammatory proteins including IL-6, IL-8, GM-CSF, RANTES and COX-2” value in data set [4] was “effective”.
